Experimental data taken from ChEMBL document CHEMBL3507680, “University of Dundee, Gates Library screen for HepG2 cell viability”.

assay: Human HepG2 cell viability assay in 384 well format; format: toxicity, cell-based; set-up: dose 125 nL, time 70.5 hour; concentration not given beside the values; conditions: HepG2 cells, read-out: Inhibition

| Structure (SMILES) | cytotoxicity at 70.5 h |
| --- | --- |
| CN(C)C(C(=O)NC1(CO)CCCC1)c1ccc(F)cc1 (configuration not stated) | 6.65% |
| Cc1ccc(CN2CCOC3(COCCN(S(C)(=O)=O)C3)C2)o1 (configuration not stated) | -5.62% |
| Cc1ccc(Sc2ccc(N3CCC(C(=O)O)CC3)nn2)cc1 | 33.4% |
| CCc1nccn1C1CCCN(C(=O)c2ccc3c(c2)OCO3)C1 (configuration not stated) | -6.7% |
| Cc1c(C)n2c(SCC(=O)N3CCOCC3)nnc2[nH]c1=O | -3.31% |
| Cn1ncnc1-c1ccnc(NCc2ccccn2)n1 | 9.26% |
| CCN(CC)C(=O)c1nnsc1-c1ccccc1 | -10.3% |
| CCc1nnc2n1CCN(C(=O)C(OC)c1ccccc1)C2 (configuration not stated) | -8.62% |
| CSc1nc2cc(C)n(CC(=O)NC(C)C)c2c(=O)n1CC(C)C | -4.16% |
| CC(C)(CO)CNC(=O)c1ccnn1-c1ccc2ccccn12 | -2.1% |
| COCCN(Cc1ccccc1)Cc1nc(-c2ccsc2)no1 | -3.79% |
| CN(C)c1cc(C(=O)N2CCCC2c2cnn(C)c2)ccn1 (configuration not stated) | 4.19% |
| CN(Cc1cnn(C)c1)C(=O)CCS(=O)(=O)c1ccc2c(c1)OCCO2 | -112% |
| CO[C@@H]1CC[C@H]2[C@H]1OCCN2CC1CC1 | -83.7% |
| CN1CCN(c2ccc(C(=O)N3CCCC(c4ncc[nH]4)C3)cc2)CC1 (configuration not stated) | -9.77% |
| Cc1cc(CN(Cc2ccccc2)CC(O)c2cccs2)on1 (configuration not stated) | 8.6% |
| Cc1cnc(-c2nc(O)c3c(n2)CN(C(=O)C2CCCO2)CC3)cn1 (configuration not stated) | -1.18% |
| CCS(=O)(=O)N1CCC(NC(=O)c2ccccc2O)CC1 | -6.17% |
| CN1CCC(N(C)CCC(=O)N2CCN(Cc3cccc(F)c3)CC2)C1 (configuration not stated) | -0.236% |
| O=C(NC1(c2nc(C3CC3)no2)CCCCC1)c1cccnc1O | 3.05% |
| Cn1c(NCC(O)c2ccc(F)c(F)c2)c(C#N)c(=O)n(C)c1=O (configuration not stated) | 1.75% |
| CCNC(=O)N1C[C@@H]2OCC(=O)N(CC3CCCCC3)[C@@H]2C1 | -3.95% |
| OC(CNCCn1cccn1)c1ccc(C(F)(F)F)cc1 (configuration not stated) | -4.94% |

| Structure (SMILES) | cytotoxicity at 70.5 h |
| --- | --- |
| O=C(C1CC1)N1CCC(c2nc(O)c3c(n2)CCN(C2CCCC2)C3)C1 (configuration not stated) | -6.87% |
| c1coc(-c2noc(CN3CCCC3Cn3cncn3)n2)c1 (configuration not stated) | -8.45% |
| COc1ccc(C(=O)CCc2nc(C3CC3)no2)cc1F | -13.6% |
| CC(C)c1cc(N[C@@H](CO)C(N)=O)n2nccc2n1 | 31.2% |
| COc1ccc(CNC(=O)N2CCc3sccc3C2)cc1O | -10.2% |
| Fc1ccc(CN2CCCC3(CCN(Cc4ncc[nH]4)C3)C2)cc1F (configuration not stated) | -0.549% |
| Cc1nc(CN2CCCC3(CCN(c4cnn(C)c4)C3=O)C2)cs1 (configuration not stated) | -11.6% |
| Cc1ccccc1OCCCC(=O)NCC1CN(C)CCO1 (configuration not stated) | -1.6% |
| CC(C)(CNC(=O)CCOc1cccc(F)c1)C(N)=O | 2.27% |
| CN(CC1CCOC1)S(=O)(=O)c1cccc(C(=O)N2CCCCCC2)c1 (configuration not stated) | -14.8% |
| Cc1nc(Nc2ccc(Cl)cn2)sc1C(=O)NC(C)C | 7.41% |
| CN(C)C(=O)N1CCCn2nc(CNC(=O)CCc3ccsc3)cc2C1 | -9.25% |
| O=C(c1ccnnc1)N1CCC2(CCN(c3ccsc3)C2=O)C1 (configuration not stated) | -0.84% |
| CCNC(=O)NC(=O)CNc1cc(C#N)ccc1OCC | -3.61% |
| CC1(C)Cc2ccc(C(=O)NC3CCS(=O)(=O)C3)c(O)c2O1 (configuration not stated) | 12.1% |
| CCNC(=O)[C@@H]1C[C@H](NC(=O)c2cc(=O)[nH]c3ccc(C)cc23)CN1C | -7.81% |
| Cc1ccoc1C(=O)NC1CCN(CC(=O)N(C)c2ccccc2)CC1 | 18% |
| Cn1cc(CN2C[C@H]3CCC[C@@]3(COCC3CC3)C2)cn1 | -1.1% |
| COc1ccccc1[C@@H]1CN(Cc2ccncc2)C[C@H]1C(=O)O | 9.71% |
| Cc1nn(-c2ccccc2Cl)c(C)c1CCC(=O)NCCS(C)(=O)=O | 1.1% |
| CC(C)N(C)[C@@H]1CCN(Cc2ccco2)[C@H]1Cc1ccccc1 | 38.2% |
| COc1ccc(Cl)cc1NCC(=O)N(Cc1cccnc1)C1CC1 | -7.28% |
| COc1ccccc1-c1c[nH]c(C2CCCN2)n1 (configuration not stated) | -7.74% |

| Structure (SMILES) | cytotoxicity at 70.5 h |
| --- | --- |
| CCN(Cc1ccc2c(c1)OCO2)c1ncc(S(N)(=O)=O)s1 | 1.59% |
| c1ccc(CN2CCCC2Cn2cncn2)nc1 (configuration not stated) | 7.22% |
| Cc1cc(C2CCC2)nc(N(C)Cc2ncccc2C)n1 | 2.14% |
| Cc1cc(N2CCC(NC(=O)CCc3cnn(C)c3)CC2)nc(C)n1 | -4.77% |
| O=C1O[C@@H]2CN(Cc3cccc(F)c3)C[C@@H]2N1CCCN1CCOCC1 | 9.24% |
| O=C(c1ccncc1)N1CCN(C(=O)c2coc3ccccc23)CC1 | -11% |
| CCc1nc(CN2CCCN(C(=O)C(C)n3cncn3)CC2)cs1 (configuration not stated) | -8.34% |
| Cc1ccc(CN2CCC3(CC2)CCN(C(=O)c2cccn2C)C3)cc1 | -3.29% |
| O=S(=O)(CCN1CCCCC1Cn1cncn1)c1ccccc1 (configuration not stated) | 27.2% |
| O=C(Cn1ccc2ccccc21)N1CCC(Oc2cnccn2)CC1 | -7% |
| CCN1CCN(C(=O)c2ccc(Cn3ccccc3=O)o2)CC1 | -9.18% |
| c1ccc(Cc2noc(CN3CCOC(Cn4cncn4)C3)n2)cc1 (configuration not stated) | 12% |
| CCOc1ccccc1-n1c(C2CCC2)n[nH]c1=O | -18.9% |
| CC(CNC(=O)c1c[nH]nn1)Oc1cccc(Br)c1 (configuration not stated) | -11.4% |
| CC(=O)c1cccc(OCc2cc(C(=O)N3CCCCO3)n[nH]2)c1 | -15.4% |
| CN1CCN(Cc2cccnc2)C(=O)C12CCN(C1CCOC1)CC2 (configuration not stated) | -5.29% |
| CCOCC(=O)Nc1ncn(Cc2cccc(Br)c2)n1 | 17.2% |
| COc1ccc(C(=O)COc2coc(CN3CCCCC3)cc2=O)cc1 | -5.06% |
| CCn1cnnc1CNC(=O)c1cc(Cl)ccc1OC | -4.87% |
| Cc1nc(CC(=O)N2CCCCC2c2ccn3ccnc3n2)cs1 (configuration not stated) | -12.6% |
| O=C(CCCn1ccnc1)N1CCC2(CC1)[C@H](O)C[C@@H]2OCCO | -7.46% |
| COC(=O)COc1c(F)cc(Br)cc1C(C)=O | -2.7% |
| COc1cccc(CN2CCN3C(=O)NC[C@H]3C2)n1 | -7.27% |

| Structure (SMILES) | cytotoxicity at 70.5 h |
| --- | --- |
| CC(C)C(C)N(C)Cc1nnc(-c2ccc(Br)s2)o1 (configuration not stated) | -3% |
| CCc1nnc(CN(CC)C(=O)C2CC(=O)N(CC)C2)o1 (configuration not stated) | -1.3% |
| O=C(CCc1cc2n(n1)CCCN(CCc1ccccc1)C2)NC1CC1 | -11% |
| Cc1nc(CN2CCCC(NCc3cnn(C)c3)C2)no1 (configuration not stated) | -8.69% |
| CCO[C@@H]1C[C@H]2CN(Cc3ccc(C)o3)CCN2C1 | -11.9% |
| Cc1cccnc1NCCNc1cc(C(C)C)nc2ccnn12 | -11.6% |
| CCO[C@@H]1CO[C@@]2(CCCN(S(=O)(=O)c3cccnc3)C2)C1 | -17.7% |
| COc1cccc(-c2cc(C(=O)N3N=C(C)CC3(O)C(F)(F)F)[nH]n2)c1 (configuration not stated) | -16.8% |
| O=C(c1cc2c(s1)CCN2C(=O)C1CC1)N1CCCC1 | -4.7% |
| Cn1ncc2c(=O)[nH]c(CN3CCCC3CC3CCCCC3)nc21 (configuration not stated) | -9.61% |
| O=C(Cc1c[nH]c2ccccc12)NCC1CCN(Cc2c[nH]cn2)C1 (configuration not stated) | -6.01% |
| Cc1nc(C)n(CC2CN(Cc3nccs3)Cc3nccn3C2)n1 (configuration not stated) | -2.68% |
| Nc1cc(C(=O)NCC2CCN(CCc3ccccc3)C2)ccn1 (configuration not stated) | -6.39% |
| O=C(O)CC1CN(S(=O)(=O)c2cccc(F)c2)c2ccccc21 (configuration not stated) | 22.7% |
| CCOc1nnc(CN2CCN(CCOC)C(C)C2)s1 (configuration not stated) | -7.83% |
| Cc1ccc(N2CC3(COCCN(Cc4cccnc4)C3)OCC2=O)s1 (configuration not stated) | 26.6% |
| CC(NC(=O)NCCCN1CCCCCC1)c1nncn1C (configuration not stated) | 0.545% |
| Cc1cc(=O)n(CCNS(=O)(=O)c2ccccc2)cn1 | -1.2% |
| Nc1ccnc(N2CCC(Cc3ccccc3Cl)(C(=O)O)CC2)n1 | 1.15% |
| Cc1n[nH]c(C)c1C1CCCN1C(=O)NCC(=O)NC(C)(C)C (configuration not stated) | -2.7% |
| O=C(c1cn2ccsc2n1)N1CCN(CC2CC2)[C@@H]2CS(=O)(=O)C[C@@H]21 | -10.5% |
| CSC1(CNC(=O)N(C)Cc2ccc(C)s2)CCOCC1 | 15.5% |
| CN1CCc2nc(C3CCCN(S(=O)(=O)N4CCCC4)C3)ncc2C1 (configuration not stated) | 0.156% |

| Structure (SMILES) | cytotoxicity at 70.5 h |
| --- | --- |
| NC(=O)NC1(C(=O)N2CCc3c(Cl)cccc3C2)CCCCC1 | 8.62% |
| CCCC(=O)N1CC[C@@H]2[C@H](CC1)N(Cc1cccc(C)n1)CCS2(=O)=O | -2.09% |
| Cc1cc(NC(=O)CNCc2csc(-c3ncccn3)n2)ccc1Cl | -14.6% |
| c1ccc(OCc2noc(CN3CCC(N4CCSCC4)CC3)n2)cc1 | -5.9% |
| CC1C(=O)Nc2cccnc2N1S(=O)(=O)c1cc(F)cc(F)c1 (configuration not stated) | 16% |
| CNC(=O)c1ccc(C2CN(Cc3ccc(F)cc3)CCO2)nc1 (configuration not stated) | -1.99% |
| Fc1ccccc1CC1CCN(Cc2ccccn2)CC1 | -5.22% |
| Cc1ncc(C(=O)N2CCCC2c2c(C)nn(C)c2C)s1 (configuration not stated) | -2.56% |
| CCc1cc(C(=O)N2CC[C@@H](c3ccc4c(c3)OCO4)[C@H](O)C2)ccn1 | 16.7% |
| CCc1n[nH]c(C2CN(C(=O)c3ncoc3CC)CCO2)n1 (configuration not stated) | -13.4% |
| Cc1cc(C(=O)N2CCN[C@H](C)C2)c2ccc(F)cc2n1 | 15.7% |
| Cc1onc(-c2ccncc2)c1C(=O)NC1CCCOC1 (configuration not stated) | -9.07% |
| Cc1nnc(CNCC2(O)CCCN(Cc3ccc(F)c(F)c3)C2=O)[nH]1 (configuration not stated) | -0.578% |
| CNC(=O)[C@H]1C[C@H]2OCC[C@H]2N(CCOc2ccc(Cl)cc2)C1 | -1.59% |
| CC(C)Cc1cc(C(=O)NCc2nnc[nH]2)[nH]n1 | -13.4% |
| Cn1nc(-c2cccs2)cc1[C@H]1CN2CC[C@H]1C[C@@H]2CN | -6.9% |
| Cc1nnc(-c2cccc(C#N)c2)n1C1CCN(C(C)C)C1=O (configuration not stated) | -11.3% |
| Cn1c(-c2ccccc2Cl)nc2cc(C(=O)NCCOCCO)cnc21 | -6.61% |
| Cc1ccc(-c2nnc(CCC(=O)NCc3cn(C)nc3C)o2)s1 | -9.67% |
| Cc1cccc(N(CCC(N)=O)C(=O)c2cnccn2)c1 | -12.9% |
